Source: patent US10441591B2, “Applications for etonogestrel in preparing anti-prostate cancer products” (SHANGHAI JIAO TONG UNIVERSITY, priority 2015, dated 2019)

Tests used:
Assay type in all cases: cell-based
[1] = system: DU-145 prostate cancer cells; experiment: CellTiter-Glo luminescent cell viability assay, DU-145
Method: In example 1, CELLTITER-GLO was used to test etonogestrel against prostate cancer. DU-145 cells were handled as described above, and a DU-145 96-well cell culture plate was obtained. The complete medium for DU-145 cells was RPMI-1640 (a live product), Cat# A1049101, with a cells/well density of 4000. 2. The drug analyte etonogestrel was prepared and administered (200× final concentration): a) DMSO was used to dilute the analyte etonogestrel to 20 mM for use. 79 μL of the 20 mM analyte prepared in step a) was added to the first well in the first row of the dilution plate, and then 54 μL of DMSO solution was added to the second through ninth wells of the first row. 25 μL of solution was aspirated from the first to the second well, and after mixing well 25 μL of solution was aspirated from the second to the third well, and this was repeated until the 9th well in order to ensure that 3.16 dilution of the medication would be carried out one-by-one. b) 95 μl of cell-specific complete medium was added to the working plate, each medication to 9 wells. […] The final concentrations (μM) of the analyte drug in wells 2-10 in FIG. 1 are, in order: 100, 31.64557, 10.01442, 3.16912, 1.002886, 0.317369, 0.100433, 0.031783, 0.010058; a) Before testing, the DU-145 96-well drug screening plate described in 3 above was stabilized to room temperature for 20-30 minutes. c) 100 μl of CellTiter-Glo reagent (prepared as described in 1 above) was added to all drug screening plates and mixed evenly. d) It was thoroughly oscillated in a 96-well microplate oscillator for 2 minutes to allow the cells to undergo full lysis. e) It was stored away from light at room temperature for 15 minutes before carrying out luminescent signal detection to ensure signal stability. f) An EnSpire multi-function plate reader was used at […] to read the luminescent signals. g) Data was processed and analyzed.

[2] = system: NCI-H1703 human lung squamous carcinoma cells; experiment: CellTiter-Glo luminescent cell viability assay, NCI-H1703; conditions: 72 hours
[3] = system: NCI-H2122 human lung cancer cells; experiment: CellTiter-Glo luminescent cell viability assay, NCI-H2122; conditions: 72 hours

C#C[C@]1(O)CC[C@H]2[C@@H]3CCC4=CC(=O)CC[C@@H]4[C@H]3C(=C)C[C@@]21CC [etonogestrel]
inhibitory effect on the proliferation of prostate cancer cells ([1]; DU-145 compared with NCI-H1703 and NCI-H2122): specific inhibitory effect on the proliferation of prostate cancer cells | IC50 ([1]; Homo sapiens, DU-145 cells, 72 hours, CellTiter-Glo): 16 µM | EC50 ([1]; Homo sapiens, DU-145 cells, FIG. 2 dose-response curve, 72 hours): 11.7 µM | IC50 [2]: ≥ 100 µM | IC50 [3]: ≥ 100 µM
